Data as given in US10815238B2, “Antimicrobial compounds and methods of making and using the same” (BIOVERSYS AG, priority 2013, dated 2020).

system: Eschericia coli (E. coli) strain ATCC25922; test: Standard microdilution assay, MIC against E. coli ATCC25922; format: cell-based; settings: Escherichia coli; E. coli strain ATCC25922, standard microdilution assay; cutoff 16 micrograms/mL; read-out: MIC E. Coli
Outline: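 Scoring as + or − used a 16 micrograms/mL cutoff on minimum inhibitory concentrations. These came from CLSI-standard microdilution, quality-controlled with reference strains tested in the same run.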

Structure (SMILES) | MIC [µg/mL]
O=C(O)CNCc1ccc(-n2cc3cc[nH]c3nc2=O)cc1 [Compound 114] | > 16
C[C@H](NCCCNC(=N)N)c1ccc(-n2cc3cc(-c4cc(SC(F)(F)F)cc([C@H](O)CCC(N)C(O)CO)c4)[nH]c3nc2=O)cc1 (stereo partly shown) [Compound 134] | < 16
C[C@H](N)CCCc1cc(Cl)c(F)c(-c2cc3cn(-c4ccc([C@@H](NCCCNC(=N)N)c5ccc(O)cc5)cc4)c(=O)nc3[nH]2)c1 [Compound 26] | < 16
COc1ccc([C@H](NCCCNC(=N)N)c2ccc(-n3cc4cc(-c5cc(CCC[C@H](C)N)cc(C(F)(F)F)c5)[nH]c4nc3=O)cc2)cc1 [Compound 17] | < 16
CCOC(=O)N[C@@H](C)CCCc1cc(Cl)c(F)c(-c2cc3cn(-c4ccc([C@H](C)NCCCNC(=N)N)cc4)c(=O)nc3[nH]2)c1 [Compound 71] | < 16
CNCCNCc1ccc(-n2cc3cc(-c4cc(CCC[C@H](C)N)cc(Cl)c4F)[nH]c3nc2=O)cc1 [Compound 123] | < 16
C=CCC[C@H](NCCCNC(=N)N)c1ccc(-n2cc3cc(-c4cc(CCC[C@H](C)N)cc(Cl)c4F)[nH]c3nc2=O)cc1 [Compound 81] | < 16
O=C(O)CCNCc1ccc(-n2cc3cc[nH]c3nc2=O)cc1 [Compound 138] | > 16
C[C@H](N)CCCc1cc(Cl)c(F)c(-c2cc3cn(-c4ccc([C@H](Cn5ccnn5)NCCCNC(=N)N)cc4)c(=O)nc3[nH]2)c1 [Compound 87] | < 16
CC[C@H](N)COCc1cc(SC(F)(F)F)cc(-c2cc3cn(-c4ccc([C@H](C)NCCCNC(=N)N)cc4)c(=O)nc3[nH]2)c1 [Compound 64] | < 16
C[C@H](N)CCCc1cc(Cl)c(F)c(-c2cc3cn(-c4ccc([C@@H](NCCCNC(=N)N)C(N)=O)cc4)c(=O)nc3[nH]2)c1 [Compound 32] | < 16
Cc1cc(F)c(-c2cc3cn(-c4ccc([C@H](C)NCCCNC(=N)N)cc4)c(=O)nc3[nH]2)cc1CCC[C@H](C)N [Compound 33] | < 16
COC(=O)N[C@@H](C)CCCc1cc(Cl)c(F)c(-c2cc3cn(-c4ccc([C@H](C)NCCCNC(=N)N)cc4)c(=O)nc3[nH]2)c1 [Compound 70] | < 16
C[C@H](N)CCCc1cc(SC(F)(F)F)cc(-c2cc3cn(-c4ccc(CNCc5cccnc5)cc4)c(=O)nc3[nH]2)c1 [Compound 113] | > 16
CC(N)CCNCc1ccc(-n2cc3cc(-c4cc(CCC[C@H](C)N)cc(Cl)c4F)[nH]c3nc2=O)cc1 (stereo partly shown) [Compound 160] | < 16
C[C@H](N)CCCc1cc(-c2cc3cn(-c4ccc([C@H](Cn5ccnn5)NCCCNC(=N)N)cc4)c(=O)nc3[nH]2)cc(C(F)(F)F)c1 [Compound 94] | < 16
C[C@H](NCCCNC(=N)N)c1ccc(-n2cc3cc(-c4cc(CCC[C@@H](N)CF)cc(Cl)c4F)[nH]c3nc2=O)cc1 [Compound 135] | < 16

Structure (SMILES) | MIC [µg/mL]
COCC[C@H](NCCCNC(=N)N)c1ccc(-n2cc3cc(-c4cc(CCC[C@H](C)N)cc(Cl)c4F)[nH]c3nc2=O)cc1 [Compound 29] | < 16
C[C@H](N)CCCc1cc(Cl)c(F)c(-c2cc3cn(-c4ccc([C@@H](N)CCCCNC(=N)N)cc4)c(=O)nc3[nH]2)c1 [Compound 118] | < 16
C[C@H](N)CCCc1cc(SC(F)(F)F)cc(-c2cc3cn(-c4ccc([C@@H](CO)NCCCNC(=N)N)cc4)c(=O)nc3[nH]2)c1 [Compound 45] | < 16
C[C@H](N)CCCc1cc(Cl)c(F)c(-c2cc3cn(-c4ccc([C@@H](NCCCNC(=N)N)c5cccnc5)cc4)c(=O)nc3[nH]2)c1 [Compound 61] | < 16
C[C@H](N)CCCc1cc(Cl)c(F)c(-c2cc3cn(-c4ccc(CNCC#N)cc4)c(=O)nc3[nH]2)c1 [Compound 165] | > 16
C[C@H](NCCCNC(=N)N)c1ccc(-n2cc3cc(-c4cc(C[C@H]5C[C@H](N)CCO5)cc(OC(F)(F)F)c4)[nH]c3nc2=O)cc1 [Compound 38] | < 16
C[C@H](N)CCCc1cc(-c2cc3cn(-c4ccc([C@H](CCO)NCCCNC(=N)N)cc4)c(=O)nc3[nH]2)cc(C(F)(F)F)c1 [Compound 16] | < 16
C=C[C@H](N)CC[C@H](O)c1cc(SC(F)(F)F)cc(-c2cc3cn(-c4ccc([C@H](C)NCCCNC(=N)N)cc4)c(=O)nc3[nH]2)c1 [Compound 91] | < 16
C=CC[C@@H](NCCCNC(=N)N)c1ccc(-n2cc3cc(-c4cc(CCC[C@H](C)N)cc(C(F)(F)F)c4)[nH]c3nc2=O)cc1 [Compound 4] | < 16
C=CC[C@@H](NCCCNC(=N)N)c1ccc(-n2cc3cc(-c4cc(CCC[C@H](C)N)cc(SC(F)(F)F)c4)[nH]c3nc2=O)cc1 [Compound 1] | < 16
C[C@H](N)CCCc1cc(SC(F)(F)F)cc(-c2cc3cn(-c4ccc([C@H](CCN)NCCCNC(=N)N)cc4)c(=O)nc3[nH]2)c1 [Compound 23] | < 16
C[C@H](N)CCCc1cc(-c2cc3cn(-c4ccc([C@H](CCN)NCCCNC(=N)N)cc4)c(=O)nc3[nH]2)cc(C(F)(F)F)c1 [Compound 18] | < 16
CSC[C@H](N)COCc1cc(SC(F)(F)F)cc(-c2cc3cn(-c4ccc([C@H](C)NCCCNC(=N)N)cc4)c(=O)nc3[nH]2)c1 [Compound 83] | < 16
C=C[C@H](N)CC[C@@H](O)c1cc(SC(F)(F)F)cc(-c2cc3cn(-c4ccc([C@H](C)NCCCNC(=N)N)cc4)c(=O)nc3[nH]2)c1 [Compound 78] | < 16
CNCCNCc1ccc(-n2cc3cc(-c4cc(CCC[C@H](C)N)cc(SC(F)(F)F)c4)[nH]c3nc2=O)cc1 [Compound 124] | > 16
C[C@H](N)CCCc1cc(-c2cc3cn(-c4ccc([C@H](CCCO)NCCCNC(=N)N)cc4)c(=O)nc3[nH]2)cc(C(F)(F)F)c1 [Compound 101] | < 16

Results, then the molecule that gave them:

MIC [µg/mL] | Structure (SMILES)
< 16 | C[C@H](N)CCCc1cc(OC(F)(F)F)c(F)c(-c2cc3cn(-c4ccc(CN[C@@H](CO)CCNC(=N)N)cc4)c(=O)nc3[nH]2)c1 [Compound 274]
< 16 | CC[C@@H](N)CCNCc1ccc(-n2cc3cc(-c4cc(CCC[C@H](C)N)cc(Cl)c4F)[nH]c3nc2=O)cc1 [Compound 197]
< 16 | C[C@H](N)CCCc1cc(Cl)c(F)c(-c2cc3cn(-c4ccc([C@H](C)NCC[C@H](CN)NC(=N)N)cc4)c(=O)nc3[nH]2)c1 [Compound 304]
< 16 | C[C@H](N)CCCc1cc(Cl)c(F)c(-c2cc3cn(-c4ccc(CN[C@H](C)CCN)cc4)c(=O)nc3[nH]2)c1 [Compound 210]
< 16 | C[C@H](N)CCCc1cc(-c2cc3cn(-c4ccc([C@H](C)NCC[C@@H](C)NC(=N)N)cc4)c(=O)nc3[nH]2)cc(C(F)(F)F)c1 [Compound 200]
< 16 | C[C@H](N)CCCc1cc(Cl)c(F)c(-c2cc3cn(-c4ccc(CNCC[C@@H]5CN=C(N)N5)cc4)c(=O)nc3[nH]2)c1 [Compound 204]
< 16 | C[C@H](N)CCCc1cc(Cl)c(F)c(-c2cc3cn(-c4ccc([C@H](C)N[C@@H](C)CCNC(=N)N)cc4)c(=O)nc3[nH]2)c1 [Compound 219]
< 16 | C[C@H](N)CCCc1cc(OC(F)(F)F)c(F)c(-c2cc3cn(-c4ccc([C@H](C)NCC[C@@H](CNCc5nccs5)NC(=N)N)cc4)c(=O)nc3[nH]2)c1 [Compound 277]
< 16 | C[C@H](N)CCCc1cc(-c2cc3cn(-c4ccc([C@H](C)NCCCNC(=N)N)cc4)c(=O)nc3[nH]2)c(F)c(C(F)(F)F)c1F [Compound 214]
< 16 | C[C@H](N)CCCc1cc(OC(F)(F)F)c(F)c(-c2cc3cn(-c4ccc([C@H](C)NCC[C@H](CO)NC(=N)N)cc4)c(=O)nc3[nH]2)c1 [Compound 263]
< 16 | CN[C@H](CCNCc1ccc(-n2cc3cc(-c4cc(CCC[C@H](C)N)cc(Cl)c4F)[nH]c3nc2=O)cc1)COC [Compound 179]
< 16 | C[C@H](N)CCCc1cc(Cl)c(F)c(-c2cc3cn(-c4ccc([C@H](C)NCC[C@H](Cn5ccnn5)NC(=N)N)cc4)c(=O)nc3[nH]2)c1 [Compound 293]
< 16 | C[C@H](N)CCCc1cc(Cl)c(F)c(-c2cc3c([nH]2)NC(=O)N(c2ccc([C@H](C)NCCCNC(=N)N)cc2)C3)c1 [Compound 246]
< 16 | COC[C@H](N)CCCc1cc(Cl)c(F)c(-c2cc3cn(-c4ccc([C@H](C)NCCCNC(=N)N)cc4)c(=O)nc3[nH]2)c1 [Compound 171]
< 16 | C[C@H](N)CCCc1cc(Cl)c(F)c(-c2cc3cn(-c4ccc([C@H](C)NCC[C@@H](Cn5cccn5)NC(=N)N)cc4)c(=O)nc3[nH]2)c1 [Compound 279]
< 16 | C[C@H](N)CCCc1cc(Cl)c(F)c(-c2cc3cn(-c4ccc([C@H](C)NCC[C@@H](C)N)cc4)c(=O)nc3[nH]2)c1 [Compound 193]
< 16 | C[C@H](N)CCCc1cc(OC(F)(F)F)c(F)c(-c2cc3cn(-c4ccc([C@H](C)NCC[C@@H](CN)NC(=N)N)cc4)c(=O)nc3[nH]2)c1 [Compound 278]
< 16 | C[C@H](N)CCCc1cc(Cl)c(F)c(-c2cc3cn(-c4ccc([C@@H](C)NCCCNC(=N)N)cc4)c(=O)nc3[nH]2)c1 [Compound 317]
< 16 | C[C@H](N)CCCc1cc(Cl)c(F)c(-c2[nH]c3nc(=O)n(-c4ccc([C@H](C)NCCCNC(=N)N)cc4)cc3c2Br)c1 [Compound 286]
< 16 | C[C@H](N)CCCc1cc(OC(F)(F)F)c(F)c(-c2cc3cn(-c4ccc([C@H](C)NCC[C@H](CN)NC(=N)N)cc4)c(=O)nc3[nH]2)c1 [Compound 305]
< 16 | C[C@H](N)CCCc1cc(OC(F)(F)F)c(F)c(-c2cc3cn(-c4ccc([C@H](N)C(=O)NCCNC(=N)N)cc4)c(=O)nc3[nH]2)c1 [Compound 255]
< 16 | C[C@H](N)CC[C@@H](O)c1cc(Cl)c(F)c(-c2cc3cn(-c4ccc([C@H](C)NCCCNC(=N)N)cc4)c(=O)nc3[nH]2)c1 [Compound 310]
< 16 | C[C@H](NCCCNC(=N)N)c1ccc(-n2cc3cc(-c4cc(CCC[C@@H](N)CO)cc(OC(F)(F)F)c4F)[nH]c3nc2=O)cc1 [Compound 243]
< 16 | C[C@H](N)CCCc1cc(OC(F)(F)F)c(F)c(-c2cc3cn(-c4ccc([C@H](C)NCC[C@@H](CCc5ccccc5)NC(=N)N)cc4)c(=O)nc3[nH]2)c1 [Compound 259]
< 16 | C[C@H](N)CCCc1cc(Cl)c(F)c(C#Cc2cn(-c3ccc([C@H](C)NCCCNC(=N)N)cc3)c(=O)nc2N)c1 [Compound 241]
